Assay results taken from patent US9688653B2, “Ethoxyphenyl thienyl compounds and methods for the treatment of bacterial infections” (Duke University, priority 2013, dated 2017).
“Also recorded” adds a separate entry of the source.

How the values were obtained:
K1 capsule of UTI89 = assay: Secondary assay 3: orcinol assay for released K1 capsule polysaccharide; type: cell-based, Escherichia coli; details: 100 μM, K1 strain UTI89
Experimental: E. Secondary Assay 3: Orcinol Secondary Screening for Inhibitors of Bacterial Capsule Biogenesis.
Purpose: This assay was performed only on the probe candidate. […] The biochemical determination of cell-surface associated capsule was performed using UTI89 or the Delta Region I and Delta Region II capsule mutant bacterial strains.
Purpose: This assay was performed only on the probe candidate. […] The biochemical determination of cell-surface associated capsule was performed using UTI89 or the delta Region I and Region II capsule mutant bacterial strains.
Assay Description: The biochemical measurement of cell-surface associated capsule was performed. UTI89 or capsule mutants were grown in culture tubes with and without the test compound (50 μM). The cultures were centrifuged, and the cell pellets were washed in PBS and resuspended in Tris buffer, pH5. […] Released polysaccharide was harvested by separation from whole bacteria by centrifugation followed by deproteination with phenol/chloroform and precipitation with ethanol. The precipitated material was subjected to acid hydrolysis (pH 2 at 80° C. for 1 hr) and incubated with orcinol, which reacts with periodic intermediates to produce a violet color quantified at OD 570 (3) Inhibitors reducing or abrogating surface encapsulation yielded low orcinol levels similar to the capsule export and synthesis mutants (Region I and II). The positive control drug C7 (100 μM final well concentration) was used in this screen.
Endpoint Read: The samples were read at ambient temperature from the bottom for absorbance at A570 in a BioTek Quantplate reader and the degree of orcinol-reactive material was determined based on the absorbance compared to a wild-type encapsulated strain (UTI89) and a standard curve using purified sialic acid.
Orcinol assay for released capsule material. Orcinol reactivity was used as a biochemical confirmation of altered extracellular capsule after compound treatment. UTI89 or an isogenic capsule mutant was grown in 100 μM of test compound or 1% DMSO. The assay was performed as previously described. The molecule C7 (100 μM final concentration) was used as a positive control. The assay was performed 3 times with replicate samples.

[1] = test system: Bladder carcinoma 5637 cells; details: earlier report; cited from earlier work
UPEC K1 strain UTI80 = details: cited from earlier work
E. coli K1 strain UTI89 [2] = assay: microbe, parasite or virus in culture; details: for IC50: Escherichia coli; for Selectivity: five probe analogues
How it was run: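 UTI89 cultures in LB with 0.5% DMSO were preincubated 2 hr at 37 °C with compounds (100 μM in screen), then with K1F phage a further 2 hr. Viability was read as Alamar Blue fluorescence. Phage-lysis inhibition is relative to plate bacterial controls; IC50 by 4-parameter fit locked at 0 and 100.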

[3] = Cytotoxicity counterscreen, CellTiter Glo, 72 hr; type: cell-based, human; details: human, bladder carcinoma 5637 cells (ATCC HTB-9), five probe analogues
How it was run: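 5637 bladder carcinoma cells were exposed to a 10-point compound series (300-0.58 μM, 0.5% DMSO) for 72 h. Viability was measured by CellTiter-Glo luminescence, and TC50 (CC50) was derived, with Hyamine as cytotoxic control.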

E. coli K1 strain UTI89 [4] = assay: Secondary assay 2: T7 phage-mediated lysis assay; type: cell-based, Escherichia coli; details: Escherichia coli, five probe analogues; read-out: T7 phage IC50
How it was run: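 E. coli K1 UTI89 shaken 1.5 h with compound (100–0.39 μM, quadruplicate, 1% DMSO), initial OD600 taken to flag growth effects without phage. T7 phage, whose entry is blocked by K capsule, then added; OD600 lysis read after 3 h at 37 °C, greater lysis indicating less capsule.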

[5] = target: norepinephrine transporter (Homo sapiens, UniProt P23975); assay: LeadProfilingScreen, single target; type: binding; details: duplicate
norepinephrine transporter, sequence (P23975 whole entry): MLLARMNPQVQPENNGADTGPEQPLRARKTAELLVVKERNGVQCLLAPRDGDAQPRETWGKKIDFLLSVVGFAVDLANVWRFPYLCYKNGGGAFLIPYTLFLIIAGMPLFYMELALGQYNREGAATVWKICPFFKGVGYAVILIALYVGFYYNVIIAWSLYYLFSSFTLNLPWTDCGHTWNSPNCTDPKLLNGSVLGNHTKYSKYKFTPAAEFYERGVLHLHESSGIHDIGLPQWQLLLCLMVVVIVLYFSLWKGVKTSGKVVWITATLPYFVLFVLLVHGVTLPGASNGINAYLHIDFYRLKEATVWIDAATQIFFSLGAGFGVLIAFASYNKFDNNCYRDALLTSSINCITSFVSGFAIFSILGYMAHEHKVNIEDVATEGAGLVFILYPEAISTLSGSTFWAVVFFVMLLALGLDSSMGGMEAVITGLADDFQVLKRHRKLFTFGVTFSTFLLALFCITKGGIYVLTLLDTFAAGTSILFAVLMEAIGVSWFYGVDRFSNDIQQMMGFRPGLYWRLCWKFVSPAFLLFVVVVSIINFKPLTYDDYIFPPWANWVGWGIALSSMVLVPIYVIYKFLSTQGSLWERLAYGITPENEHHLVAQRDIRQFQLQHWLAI
Experimental: Evaluation of off-target effects. Off target effects of lead molecules of interest were evaluated using the LeadProfilingScreen commercial assay at Eurofins Panlabs (Bothell, Wash.). Reference standards were run as an integral part of each assay to ensure the validity of the results obtained. Assay results are presented as the percent inhibition of specific binding or activity (for n=2 replicates) for the probe compound tested at a concentration of 10 μM. Details regarding the individual assays and methods are provided in Supplementary Information File 51.
DU003 & DU011 are biologically selective. DU003 and DU011 were submitted to the Eurofins Panlabs LeadProfilingScreen to assess off-target pharmacology 1421. […] In review of PubChem data, DU011 (CID23602075) is reported to have shown activity in only 21 of 467 (4.5%, as of Sep. 5, 2013) bioassays in which it was tested (assays unrelated to the current project). Per PubChem, DU003 (CID18109210) is reported to have shown activity in only 5 of 427 (1.2%, as of Sep. 5, 2013) bioassays in which it was tested (assays unrelated to the current project).

K1 antigen of UTI89 = assay: K1 antigen whole-cell dot blot with anti-K1 serum; type: cell-based, Escherichia coli; details: 100 μM
Experimental: K1 antigen dot blot. K1 antigen was detected by dot blot assays of culture extracts probed with anti-K1 H46 serum. The assay was performed as previously described. The experiment was repeated twice with similar results, and a representative dot blot is shown.

E. coli UTI89 = assay: Human serum sensitization (MTT); type: cell-based, Escherichia coli; details: 50 μM compound, p=0.0067 versus control
Experimental: Human serum sensitization by capsule inhibitor treatment. Overnight cultures of UTI89 were diluted 1:100 and grown with or without 50 μM compound for approximately 1.5 hrs on a shaker at 37° C. Then 25 μL of anonymous, non-identified, sterile filtered pooled human serum (purchased from Equitech Bio) was added per 100 μL of growth media. This was returned to the shaker for another 3 hrs, after which 20 μL of 5 mg/mL MTT (3-(4,5-Dimethylthiazol-2-yl)-2,5-diphenyltetrazolium bromide) was added. MTT is reduced to purple formazan by bacterial reductase enzymes, thus measuring viable bacteria. This was shaken for another 15 min at 37° C. The sample was spun to remove the growth media, followed by two washes with PBS. The formazan crystals were dissolved in 100 μL of DMSO and measured at OD570.

panel of 68 receptors = details: 10 μM, duplicate; upper bound over all targets
[6] = Thiol stability (glutathione, DTT); type: physicochemical; details: 10 μM compound, PBS pH 7.4, room temperature, eight hours
Experimental: Compounds were dissolved at 10 μM in PBS at pH 7.4 (1% DMSO) and incubated at room temperature with either no thiol source as a negative control, 50 μM glutathione (GSH), or 50 μM dithiothreitol (DTT). The mixtures were sampled every hour for eight hours and analyzed by RP HPLC/UV/HRMS. The analytical RP HPLCUV/HRMS system utilized for the analysis was a Waters Acquity system with UV-detection and mass-detection (Waters LCT Premier). The analytical method conditions included a Waters Acquity HSS T3 C18 column (2.1×50 mm, 1.8 um) and elution with a linear gradient of 1% water to 100% CH3CN at 0.6 mL/min flow rate. Peaks on the 214 nm chromatographs were integrated using the Waters OpenLynx software. Absolute areas under the curve were compared at each time point to determine relative percent compound remaining. The masses of potential adducts were searched for in the final samples to determine if any detectable adduct formed. All samples were prepared in duplicate (FIG. 5). Ethacrynic acid, a known Michael acceptor, was used as a positive control. If solubility of the compound was an issue at 10 μM, PBS was substituted with PBS with 50% acetonitrile (35).

[7] = read-out: K1 phage IC50, five probe analogues

| Compound | Reduction of orcinol-reactive polysaccharides on surface of bacteria (K1 capsule of UTI89) | IC50 (E. coli K1 strain UTI89 [2]; [7]) | IC50 at 72 h [3] | IC50 (E. coli K1 strain UTI89 [4]) | Selectivity (E. coli K1 strain UTI89 [2]) | other results |
| --- | --- | --- | --- | --- | --- | --- |
| O=C(O)c1cc(-c2ccc(-c3ccccc3)cc2)nc2cc3ccccc3cc12 [C7, 2-(4-phenylphenyl)-benzo[g]quinoline-4-carboxylic acid] | ~80% |  |  |  |  | Toxicity to cultured bladder epithelial cells [1]: lacks obvious toxicity; Concentration at which the inhibitory effect reaches saturation (UPEC K1 strain UTI80): approximately 25 μM; IC50 (UPEC K1 strain UTI80; read-out: Concentration giving approximately 50% inhibition of K1F phage lysis (IC50)): 12.5 to 25 µM |
| O=C(Nc1cc(-c2ccc(C(F)(F)F)cc2)sc1C(=O)O)c1cc2ccccc2o1 [CID 53470417, 3-(Benzofuran-2-carboxamido)-5-(4-(trifluoromethyl)phenyl)thiophene-2-carboxylic acid] |  | > 100 µM | 72.1 µM | 14.1 µM |  |  |
| CCOc1ccc(-c2cc(NC(=O)c3ccc(Br)s3)c(C(=O)O)s2)cc1 [CID 53470415, 3-(5-Bromothiophene-2-carboxamido)-5-(4-ethoxyphenyl)thiophene-2-carboxylic acid] |  | 17 ± 4.49 µM | 49.7 ± 6.49 µM | 3.33 µM | 2.92 |  |
| O=C(Nc1ccncc1)c1ccc2ncsc2c1 [DU003, N-pyridin-4-yl-1,3-benzothiazole-6-carboxamide] | ~80% |  |  |  |  | inhibition at 10 µM [5]: 58%; Whole-cell anti-K1 dot blot reactivity (K1 antigen of UTI89): reduces K1 reactive material to levels comparable to those of genetic capsule mutants; Sensitivity of UTI89 to pooled human serum (MTT) (E. coli UTI89): further increased serum-mediated killing; also recorded: significantly more sensitive; Inhibition across off-target panel (panel of 68 receptors): < 30% |
| COc1ccc(-c2cc(NC(=O)c3ccc(Br)o3)c(C(=O)O)s2)cc1 [CID 53470446, 3-(5-Bromofuran-2-carboxamido)-5-(4-methoxyphenyl)thiophene-2-carboxylic acid] |  | 11.1 ± 3.33 µM | 50.5 ± 0.52 µM | 1.24 µM | 4.55 | IC50 (E. coli K1 strain UTI89 [2]; read-out: K1 phage IC50 (inhibition of K1 capsule formation)): 11.1 µM |
| C=C(CC)C(=O)c1ccc(OCC(=O)O)c(Cl)c1Cl [ethacrynic acid, Ethacrynic acid] |  |  |  |  |  | Stability to DTT ([6]; 50 μM DTT): even more rapidly; Stability to glutathione ([6]; 50 μM GSH): react rapidly |
